Tested on: rabbit skeletal myofibrils (fast skeletal myofibrils)
Assay: Activation of fast skeletal myofibrils (PUMA assay, PK/LDH-coupled ATPase at pCa25)
Type: biochemical
Conditions: AC1.4 determined according to the procedure of Example 39; reported as class symbols
Procedure, shortened: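 Detergent-washed rabbit psoas myofibrils (~90% fast fibres, calcium-regulated) assayed at calcium giving 25% of maximal ATPase rate (pCa25). ADP turnover coupled via pyruvate kinase/lactate dehydrogenase to NADH oxidation, read at 340 nm. Buffer 12 mM PIPES, 2 mM MgCl2, 1 mM DTT, pH 6.8; AC1.4 values derived.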

Row | SMILES | Mean AC1.4
1 | CC(C)(C)OC(=O)NCCNc1n[nH]c2ccc(-c3ccc(NCC(C)(C)c4ccc(F)cc4)nn3)cc12 [(tert-butoxy)-N-(2-{[5-(6-{[2-(4-fluorophenyl)-2-methylpropyl]amino}pyridazin-3-yl)(1H-indazol-3-yl)]amino}ethyl)carboxamide] | A (A=<1 uM)
2 | CC(C)(C)OC(=O)N(CC(C)(C)c1ncccc1F)c1ccc(-c2ccc3[nH]c(O)nc3c2)nn1 [(tert-butoxy)-N-[2-(3-fluoro(2-pyridyl))-2-methylpropyl]-N-[6-(2-hydroxybenzimidazol-5-yl)pyridazin-3-yl]carboxamide] | D (D=>20 uM)
3 | CC(C)(C)OC(=O)N(CC(C)(C)c1ccc(F)cc1)c1ccc(-c2ccc3[nH]c(=O)c(=O)[nH]c3c2)nn1 [(tert-butoxy)-N-[6-(2,3-dioxo(1,4-dihydroquinoxalin-6-yl))pyridazin-3-yl]-N-[2-(4-fluorophenyl)-2-methylpropyl]carboxamide] | D (D=>20 uM)
4 | CC(C)(C)OC(=O)NCc1cccc(-c2ccc(NCC(C)(C)c3ccc(F)cc3)nn2)c1 [(tert-butoxy)-N-{[3-(6-{[2-(4-fluorophenyl)-2-methylpropyl]amino}pyridazin-3-yl)phenyl]methyl}carboxamide] | B (B=1-10 uM)
5 | CC(C)(CNc1ccc(C(=O)NC(CCC(N)=O)C(N)=O)nn1)c1ccc(F)cc1 (stereo not shown) [N-(1,3-dicarbamoylpropyl)(6-{[2-(4-fluorophenyl)-2-methylpropyl]amino}pyridazin-3-yl)carboxamide] | D (D=>20 uM)
6 | CC(C)CC(NC(=O)c1ccc(NCC(C)(C)c2ccc(F)cc2)nn1)C(N)=O (stereo not shown) [N-(1-carbamoyl-3-methylbutyl)(6-{[2-(4-fluorophenyl)-2-methylpropyl]amino}pyridazin-3-yl)carboxamide] | C (C=10-20 uM)
7 | CC(C)(CNc1ccc(-c2cccc(C(=O)NCCN)c2)nn1)c1ccc(F)cc1 [N-(2-aminoethyl)[3-(6-{[2-(4-fluorophenyl)-2-methylpropyl]amino}pyridazin-3-yl)phenyl]carboxamide] | A (A=<1 uM)
8 | CC(C)(CNc1ccc(-c2cccc(C(=O)NCCCN)c2)nn1)c1ccc(F)cc1 [N-(3-aminopropyl)[3-(6-{[2-(4-fluorophenyl)-2-methylpropyl]amino}pyridazin-3-yl)phenyl]carboxamide] | B (B=1-10 uM)
9 | CC(C)(CNc1ccc(C(=O)N[C@H](Cc2ccccc2)C(N)=O)nn1)c1ccc(F)cc1 [N-((1R)-1-carbamoyl-2-phenylethyl)(6-{[2-(4-fluorophenyl)-2-methylpropyl]amino}pyridazin-3-yl)carboxamide] | C (C=10-20 uM)
10 | CC(C)(CNc1ccc(C(=O)N[C@@H](CO)C(N)=O)nn1)c1ccc(F)cc1 [N-((1S)-1-carbamoyl-2-hydroxyethyl)(6-{[2-(4-fluorophenyl)-2-methylpropyl]amino}pyridazin-3-yl)carboxamide] | D (D=>20 uM)

The remaining lines, values ahead:

Row | Mean AC1.4 | SMILES
11 | D (D=>20 uM) | OCC1(CNc2ccc(-c3ccc4[nH]ncc4c3)nn2)CCC1 [({[(6-(1H-indazol-5-yl)pyridazin-3-yl)amino]methyl}cyclobut-yl)methan-1-ol]
12 | C (C=10-20 uM) | COC(=O)c1ccc(NCC(C)(C)c2ccc(F)cc2)nn1 [Methyl 6-(2-(4-fluorophenyl)-2-methylpropylamino)pyridazine-3-carboxylate]
13 | B (B=1-10 uM) | CC(C)(CNc1ccc(-c2cccc(C(=O)NCC(O)CO)c2)nn1)c1ccc(F)cc1 (stereo not shown) [N-(2,3-dihydroxypropyl)[3-(6-{[2-(4-fluorophenyl)-2-methylpropyl]amino}pyridazin-3-yl)phenyl]carboxamide]
14 | B (B=1-10 uM) | C=Cc1ccc(NCC(C)(C)c2ccc(F)cc2)nn1 [N-(2-(4-fluorophenyl)-2-methylpropyl)-6-vinylpyridazin-3-amine]
15 | D (D=>20 uM) | CC(C)(CNc1ccc(C(=O)NCCC(N)=O)nn1)c1ccc(F)cc1 [N-(2-carbamoylethyl)(6-{[2-(4-fluorophenyl)-2-methylpropyl]amino}pyridazin-3-yl)carboxamide]

Same assay, conditions: median AC1.4 class, procedure of Example 39

Row | SMILES | Mean AC1.4
16 | CS(=O)(=O)NCc1cnc(-c2ccc(NCC3(c4ncccc4F)CCC3)nn2)s1 [({2-[6-({[(3-fluoro(2-pyridyl))cyclobutyl]methyl}ami-no)pyridazin-3-yl](1,3-thiazol-5-yl)}methyl)(methylsulfonyl)amine] | B (B=1-10 uM)
17 | NCC(F)(F)CNC(=O)c1cnc(-c2ccc(NCC3(c4ncccc4F)CCC3)nn2)s1 [N-(3-amino-2,2-difluoropropyl){2-[6-({[(3-fluoro(2-pyridyl))cyclobutyl]methyl}ami-no)pyridazin-3-yl](1,3-thiazol-5-yl)}carboxamide] | A (A=<1 uM)

Now from value to molecule:

Row | Mean AC1.4 | SMILES
18 | B (B=1-10 uM) | c1ccc(-c2ccc(NC3(c4ccccc4)CCC3)nn2)cc1 [(phenylcyclobutyl)(6-phenylpyridazin-3-yl)amine]
19 | A (A=<1 uM) | O=C(NC1CCS(=O)(=O)C1)c1cnc(-c2ccc(NCC3(c4ncccc4F)CCC3)nn2)s1 (stereo not shown) [N-(1,1-dioxothiolan-3-yl){2-[6-({[(3-fluoro(2-pyridyl))cyclobutyl]methyl}ami-no)pyridazin-3-yl](1,3-thiazol-5-yl)}carboxamide]
20 | A (A=<1 uM) | O=C(NCC(F)(F)CO)c1cnc(-c2ccc(NCC3(c4ncccc4F)CCC3)nn2)s1 [N-(2,2-difluoro-3-hydroxypropyl){2-[6-({[(3-fluoro(2-pyridyl))cyclobutyl]methyl}ami-no)pyridazin-3-yl](1,3-thiazol-5-yl)}carboxamide]
21 | A (A=<1 uM) | O=C(NCC(O)CO)c1cnc(-c2ccc(NCC3(c4ncccc4F)CCC3)nn2)s1 (stereo not shown) [N-(2,3-dihydroxypropyl){2-[6-({[(3-fluoro(2-pyridyl))cyclobutyl]methyl}ami-no)pyridazin-3-yl](1,3-thiazol-5-yl)}carboxamide]
22 | B (B=1-10 uM) | NC(CNC(=O)c1cnc(-c2ccc(NCC3(c4ncccc4F)CCC3)nn2)s1)C(F)(F)F (stereo not shown) [N-(2-amino-3,3,3-trifluoropropyl){2-[6-({[(3-fluoro(2-pyridyl))cyclobutyl]methyl}ami-no)pyridazin-3-yl](1,3-thiazol-5-yl)}carboxamide]
23 | A (A=<1 uM) | NCCNC(=O)c1cnc(-c2ccc(NCC3(c4ncccc4F)CCC3)nn2)s1 [N-(2-aminoethyl){2-[6-({[(3-fluoro(2-pyridyl))cyclobutyl]methyl}ami-no)pyridazin-3-yl](1,3-thiazol-5-yl)}carboxamide]

Same assay, conditions: median AC1.4 reported as class; procedure of Example 39

Row | SMILES | Mean AC1.4
24 | O=C(NC1CS(=O)(=O)C1)c1cccc(-c2ccc(NC[C@]3(c4ncccc4F)C[C@H](F)C3)nn2)c1 [N-(1,1-dioxothietan-3-yl){3-[6-({[3-fluoro-1-(3-fluoro(2-pyridyl))cyclobutyl]methyl}ami-no)pyridazin-3-yl]phenyl}carboxamide] | B (B=1-10 uM)
25 | O=C(NCC(F)F)c1ccc(F)c(-c2ccc(NC[C@]3(c4ncccc4F)C[C@H](F)C3)nn2)c1 [N-(2,2-difluoroethyl){4-fluoro-3-[6-({[3-fluoro-1-(3-fluoro(2-pyridyl))cyclobutyl]methyl}ami-no)pyridazin-3-yl]phenyl}carboxamide] | B (B=1-10 uM)
26 | O=C(NCCF)c1ccc(F)c(-c2ccc(NC[C@]3(c4ncccc4F)C[C@H](F)C3)nn2)c1 [N-(2-fluoroethyl){4-fluoro-3-[6-({[3-fluoro-1-(3-fluoro(2-pyridyl))cyclobutyl]methyl}ami-no)pyridazin-3-yl]phenyl}carboxamide] | B (B=1-10 uM)
27 | O=C(NC1CCOCC1)c1cccc(-c2ccc(NC[C@]3(c4ncccc4F)C[C@H](F)C3)nn2)c1 [N-(2H-3,4,5,6-tetrahydropyran-4-yl){3-[6-({[3-fluoro-1-(3-fluoro(2-pyridyl))cyclobutyl]methyl}ami-no)pyridazin-3-yl]phenyl}carboxamide] | B (B=1-10 uM)
28 | O=C(NC1CC(F)(F)C1)c1ccc(F)c(-c2ccc(NC[C@]3(c4ncccc4F)C[C@H](F)C3)nn2)c1 [N-(3,3-difluorocyclobutyl){4-fluoro-3-[6-({[3-fluoro-1-(3-fluoro(2-pyridyl))cyclobutyl]methyl}ami-no)pyridazin-3-yl]phenyl}carboxamide] | A (A=<1 uM)
29 | N#Cc1nc[nH]c1NC(=O)c1ccc(NCC2(c3ncccc3F)CCC2)nn1 [N-(4-cyanoimidazol-5-yl)[6-({[(3-fluoro(2-pyridyl))cyclobutyl]methyl}ami-no)pyridazin-3-yl]carboxamide] | C (C=10-20 uM)
30 | N#Cc1cn[nH]c1NC(=O)c1ccc(NCC2(c3ncccc3F)CCC2)nn1 [N-(4-cyanopyrazol-5-yl)[6-({[(3-fluoro(2-pyridyl))cyclobutyl]methyl}ami-no)pyridazin-3-yl]carboxamide] | B (B=1-10 uM)

Next, values leading:

Row | Mean AC1.4 | SMILES
31 | B (B=1-10 uM) | O=C(NC1CCS(=O)(=O)C1)c1cccc(-c2ccc(NC[C@]3(c4ncccc4F)C[C@H](F)C3)nn2)c1 (stereo partly shown) [N-(1,1-dioxothiolan-3-yl){3-[6-({[3-fluoro-1-(3-fluoro(2-pyridyl))cyclobutyl]methyl}ami-no)pyridazin-3-yl]phenyl}carboxamide]
32 | B (B=1-10 uM) | CC(=O)N1CC(NC(=O)c2cccc(-c3ccc(NC[C@]4(c5ncccc5F)C[C@H](F)C4)nn3)c2)C1 [N-(1-acetylazetidin-3-yl){3-[6-({[3-fluoro-1-(3-fluoro(2-pyridyl))cyclobutyl]methyl}ami-no)pyridazin-3-yl]phenyl}carboxamide]
33 | A (A=<1 uM) | CC(=O)N1CC(NC(=O)c2ccc(F)c(-c3ccc(NC[C@]4(c5ncccc5F)C[C@H](F)C4)nn3)c2)C1 [N-(1-acetylazetidin-3-yl){4-fluoro-3-[6-({[3-fluoro-1-(3-fluoro(2-pyridyl))cyclobutyl]methyl}ami-no)pyridazin-3-yl]phenyl}carboxamide]
34 | D (D=>20 uM) | O=C(Nc1nnc[nH]1)c1ccc(NCC2(c3ncccc3F)CCC2)nn1 [N-(1H-1,2,4-triazol-5-yl)[6-({[(3-fluoro(2-pyridyl))cyclobutyl]methyl}ami-no)pyridazin-3-yl]carboxamide]

Source: patent publication US10076519B2 (CYTOKINETICS, INC., priority 2010, dated 2018)
